Reference: US11505798B2, “Methods and compositions for treating inflammatory diseases” (The Regents of the University of California, priority 2019, dated 2022)

Test system: GAPLINC
Assay: qPCR of GAPLINC in MDMs pretreated with NF-κB inhibitor, then LPS stimulation
Assay type: cell-based, human
Conditions: MDMs pretreated with 10 uM, LPS 200 ng/ml for 6 h, vs DMSO
Text: FIGS. 14A-14I show monocytes isolated from human PBMCs and differentiated into macrophages were transfected with control or GAPLINC siRNA. […] Data from RNA-seq performed in biological duplicates. FIG. 14C: GAPLINC isoforms in MDMs as determined by Nanopore-based R2C2 sequencing. Data from Nanopore-sequencing performed in biological duplicates. FIG. 14D: Table representing read counts and percent of each GAPLINC isoform. FIG. 14E: Bi-directional vector expressing GFP-Zeocin on one side and GAPLINC on the other side. FIGS. 14F and 14G: qPCR analysis of GAPLINC expression in THP-1 cells expressing ectopic GAPLINC or empty-vector control. Levels of IL6 were quantified following stimulation with LPS (200 ng/ml) for 6 h; data pooled from three independent experiments. *p<0.05. FIG. 14H: qPCR analysis of GAPLINC in MDMs (n=3) pretreated with DMSO or BAY-7082 (10 uM), followed by LPS stimulation (200 ng/ml) for 6 h; data pooled from three independent experiments. *p<0.05. FIG. 14I: ATAC-seq analysis of monocytes and macrophages, untreated and treated with LPS (200 ng/ml) for 1 h, 6 h and 18 h.
Next, we examined GAPLINC levels in primary MDMs in response to inflammation. […] Induction of positive control inflammatory genes TNFα, IL6, and CCL5 was confirmed (FIGS. 16B-16D). […]

Compound: Cc1ccc(S(=O)(=O)/C=C/C#N)cc1 [BAY11-7082]
- downregulation of GAPLINC upon LPS stimulation: impaired relative to control
